The NIST ThermoML archive (doi:10.1016/j.fluid.2011.01.027)
± gives the expanded uncertainty stated by the source.

CCn1cc[n+](C)c1.O=S(=O)([O-])C(F)(F)F [1-ethyl-3-methylimidazolium trifluoromethanesulfonate]
Details | surface tension liquid-gas [mN/m]
268.29 K, Wilhelmy plate method | 41.39 ± 0.21
268.36 K, du Nouy ring method | 41.4 ± 0.21
272.08 K, Wilhelmy plate method | 41.28 ± 0.21
272.13 K, du Nouy ring method | 41.3 ± 0.21
276.54 K, Wilhelmy plate method | 41.1 ± 0.21
276.65 K, du Nouy ring method | 41.16 ± 0.21
281 K, Wilhelmy plate method | 40.96 ± 0.2
281.05 K, du Nouy ring method | 41.1 ± 0.21
287.58 K, du Nouy ring method | 40.79 ± 0.2
287.63 K, Wilhelmy plate method | 40.69 ± 0.2
293 K, du Nouy ring method | 40.74 ± 0.2
293.01 K, Wilhelmy plate method | 40.52 ± 0.2
298.01 K, Wilhelmy plate method | 40.43 ± 0.2
298.04 K, du Nouy ring method | 40.39 ± 0.2
303.18 K, du Nouy ring method | 40.18 ± 0.2
303.2 K, Wilhelmy plate method | 40.24 ± 0.2
308.2 K, Wilhelmy plate method | 40.07 ± 0.2
308.31 K, du Nouy ring method | 40.01 ± 0.2
313.27 K, Wilhelmy plate method | 39.93 ± 0.2
313.31 K, du Nouy ring method | 39.75 ± 0.2
318.36 K, Wilhelmy plate method | 39.68 ± 0.2
318.39 K, du Nouy ring method | 39.83 ± 0.2
323.33 K, Wilhelmy plate method | 39.5 ± 0.2
323.38 K, du Nouy ring method | 39.38 ± 0.2
328.2 K, du Nouy ring method | 39.44 ± 0.2
333.07 K, Wilhelmy plate method | 39.16 ± 0.2
333.12 K, du Nouy ring method | 39.24 ± 0.2
338.1 K, Wilhelmy plate method | 39.03 ± 0.2
338.15 K, du Nouy ring method | 39.02 ± 0.2
343.14 K, Wilhelmy plate method | 38.85 ± 0.2
343.21 K, du Nouy ring method | 38.85 ± 0.19
348.38 K, Wilhelmy plate method | 38.65 ± 0.19
348.53 K, du Nouy ring method | 38.62 ± 0.19
356.09 K, Wilhelmy plate method | 38.37 ± 0.19
356.28 K, du Nouy ring method | 38.31 ± 0.19

CCCCn1cc[n+](C)c1.O=S(=O)([O-])C(F)(F)F [1-butyl-3-methylimidazolium trifluoromethanesulfonate]
surface tension liquid-gas [mN/m]
Details | Wilhelmy plate method | du Nouy method
292.18 K | 35.39 ± 0.09 | –
292.24 K | – | 35.4 ± 0.09
293.4 K | 35.21 ± 0.18 | –
293.45 K | – | 35.17 ± 0.18
298.06 K | 35.18 ± 0.09 | –
298.12 K | – | 35.2 ± 0.09
298.22 K | 35.09 ± 0.18 | –
298.27 K | – | 35.1 ± 0.18
303.03 K | 35.05 ± 0.09 | –
303.09 K | – | 35.09 ± 0.09
303.18 K | 34.87 ± 0.17 | –
303.2 K | – | 34.98 ± 0.18
308.01 K | 34.71 ± 0.17 | –
308.06 K | 34.83 ± 0.09 | –
308.08 K | – | 34.85 ± 0.09
313.26 K | 34.65 ± 0.09 | –
313.31 K | – | 34.63 ± 0.09
313.58 K | – | 34.59 ± 0.17
313.59 K | 34.54 ± 0.17 | –
318.1 K | – | 34.44 ± 0.09
318.13 K | 34.53 ± 0.09 | –
318.51 K | 34.35 ± 0.17 | –
318.68 K | – | 34.36 ± 0.17
322.87 K | 34.34 ± 0.09 | –
322.93 K | 34.18 ± 0.17 | –
322.99 K | – | 34.22 ± 0.17
327.64 K | 34.19 ± 0.09 | 34.08 ± 0.09
328.05 K | 34.03 ± 0.17 | –
328.09 K | – | 33.8 ± 0.17
332.66 K | 33.85 ± 0.17 | –
332.74 K | – | 33.82 ± 0.17
333.21 K | 34.01 ± 0.09 | –
333.25 K | – | 33.89 ± 0.09
337.68 K | 33.81 ± 0.09 | –
337.83 K | 33.74 ± 0.17 | –
337.84 K | – | 33.44 ± 0.17
337.92 K | – | 33.73 ± 0.09
342.72 K | 33.61 ± 0.08 | –
343.12 K | – | 33.47 ± 0.08
343.53 K | 33.47 ± 0.17 | –
343.61 K | – | 33.41 ± 0.17
347.73 K | – | 33.36 ± 0.08
347.79 K | 33.54 ± 0.09 | –
348.54 K | 33.28 ± 0.17 | –
348.64 K | – | 32.9 ± 0.17
352.45 K | 33.27 ± 0.08 | –
352.7 K | – | 33.08 ± 0.09
355.89 K | 33 ± 0.17 | –
356 K | – | 32.82 ± 0.16
